Data set [1] in a line: Cytotoxicity against human A549 cells assessed as reduction in cell viability by MTT assay. The data set is classed as cell-based. Background: Formazan colour is commonly taken as a measure of viable cells.
Data set [2] has as its system Influenza A virus (A/Thailand/Kan353/2004(H5N1)). The data set can be described thus: Inhibition of Influenza A virus (A/Thailand/Kan353/2004(H5N1)) neuraminidase N1 using fluorogenic 2'-(4-Methylumbelliferyl)-alpha-D-N-acetylneuraminic acid sodium salt hydrate as substrate measured after 30 mins by microplate reader analysis.
Data set [3] relates to Influenza A virus. Nature of the data set: microbe, parasite or virus in culture. Particulars: A/Puerto Rico/8/1934(H1N1), A549.
Data set [4] deals with H5N1 subtype. Type of data set: functional, organism-based. As to conditions: 5 uM.
The target of another data set is Hemagglutinin (Influenza A virus, UniProt B4URE7). Nature of the data set: Binding affinity to hemagglutinin by SPR assay. (In SPR one partner is held on a chip, and binding of the other changes the refractive index at the surface.)
Data set [5] deals with Influenza A virus. The data set is classed as functional, organism-based. Particulars: H5N1.
Data set [6] has as its system Influenza A virus. Nature of the data set: Inhibition of hemagglutinin 5 in Influenza A virus assessed as inhibition of chicken erythrocytes aggregation.
The nature of data set [7]: Binding affinity to HA2 subunit by SPR assay. Further details: species or system Influenza A virus.
The next data set deals with MDCK. The data set can be described thus: Cytotoxicity against MDCK cells assessed as cell viability. The data set is classed as cell-based, Canis lupus familiaris. Particulars: dog.
The subject of data set [8] is H5N1 subtype. Nature of the data set: Antiviral activity against Influenza A virus (A/Thailand/Kan353/2004(H5N1)) infected in MDCK cells assessed as inhibition of viral entry. Type of data set: functional, organism-based.
The subject of data set [9] is Vesicular stomatitis virus. The data set can be described thus: Antiviral activity against VSV-G enveloped pseudovirus infected in MDCK cells assessed as inhibition of viral entry. The data set is classed as functional, organism-based.

The record followed here is ChEMBL document CHEMBL4346758 (2019).

The structures appear in SMILES notation. Calls of active or inactive are those of the source. The rule behind the calls is not given here.

In general, CC50 refers to the concentration giving 50% cytotoxicity. The IC50 is the point on the concentration scale where inhibition reaches its midpoint. A word on the Kd: it is the equilibrium constant for the complex coming apart. Low values mean tighter binding, high ones weaker binding.

Hemagglutinin, sequence (B4URE7 whole entry): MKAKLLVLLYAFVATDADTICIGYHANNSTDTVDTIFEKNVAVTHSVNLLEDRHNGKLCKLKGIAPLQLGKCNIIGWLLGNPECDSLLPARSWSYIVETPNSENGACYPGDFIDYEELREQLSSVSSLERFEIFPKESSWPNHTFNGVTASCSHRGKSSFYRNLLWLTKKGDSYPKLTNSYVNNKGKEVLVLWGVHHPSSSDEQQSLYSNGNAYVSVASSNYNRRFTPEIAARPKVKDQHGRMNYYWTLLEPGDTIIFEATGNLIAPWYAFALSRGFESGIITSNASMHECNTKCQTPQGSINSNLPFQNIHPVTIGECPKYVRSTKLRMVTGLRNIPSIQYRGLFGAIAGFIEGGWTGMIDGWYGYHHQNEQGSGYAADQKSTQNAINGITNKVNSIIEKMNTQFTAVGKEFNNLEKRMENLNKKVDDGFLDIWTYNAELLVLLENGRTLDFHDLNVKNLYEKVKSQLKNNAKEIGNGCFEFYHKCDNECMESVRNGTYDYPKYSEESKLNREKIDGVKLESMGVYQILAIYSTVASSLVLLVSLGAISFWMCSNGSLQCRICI

With `C[C@H]1[C@H](C)CC[C@]2(C(=O)NCCN3CCCCC3)CC[C@]3(C)C(=CC[C@@H]4[C@@]5(C)CC[C@H](O[C@@H]6O[C@H](CO)[C@@H](O[C@@H]7O[C@@H](C)[C@H](O)[C@@H](O)[C@H]7O)[C@H](O)[C@H]6O[C@@H]6O[C@@H](C)[C@H](O)[C@@H](O)[C@H]6O)C(C)(C)[C@@H]5CC[C@]43C)[C@H]12`, the CC50 in [1] was more than 200 µM. The inhibition result in data set [2] was “inactive”. This compound registered a half-maximal inhibitory concentration (IC50) in the data set with Influenza A virus [3] of 21.3 µM.
On to `CCOC(=O)C1=C[C@@H](OC(CC)CC)[C@H](NC(C)=O)[C@@H](N)C1` [OSELTAMIVIR], for which the CC50 in data set [1] was more than 200 µM. In the data set on Influenza A virus [3], this compound registered a half-inhibitory concentration (IC50) of 4.61 µM.
On to `C[C@H]1[C@H](C)CC[C@]2(C(=O)NCCN3CCOCC3)CC[C@]3(C)C(=CC[C@@H]4[C@@]5(C)CC[C@H](O[C@@H]6O[C@H](CO)[C@@H](O[C@@H]7O[C@@H](C)[C@H](O)[C@@H](O)[C@H]7O)[C@H](O)[C@H]6O[C@@H]6O[C@@H](C)[C@H](O)[C@@H](O)[C@H]6O)C(C)(C)[C@@H]5CC[C@]43C)[C@H]12`, for which, in [1], the CC50 was more than 200 µM. The inhibition entry in the data set on H5N1 subtype [4] is “Active”. Also, the Kd came out at 0.0161 µM on Hemagglutinin and 0.00017 µM in data set [7]. Besides, the inhibition result in the data set on Influenza A virus [5] was “Dose-dependent effect”. Moreover, the inhibition entry (in data set [2]; with Influenza A virus [6]; in data set [9]) was “inactive” in each case. In addition, the IC50 with Influenza A virus [3] turned out to be 18.2 µM; in the data set on H5N1 subtype [8], 3.88 µM. The Activity result in the data set on MDCK is given as “Non-Toxic”.
As to `C[C@H]1[C@H](C)CC[C@]2(C(=O)O)CC[C@]3(C)C(=CC[C@@H]4[C@@]5(C)CC[C@H](O[C@@H]6O[C@H](CO)[C@@H](O[C@@H]7O[C@@H](C)[C@H](O)[C@@H](O)[C@H]7O)[C@H](O)[C@H]6O[C@@H]6O[C@@H](C)[C@H](O)[C@@H](O)[C@H]6O)C(C)(C)[C@@H]5CC[C@]43C)[C@H]12`, the CC50 in data set [1] worked out at 66.6 µM. In the data set with Influenza A virus [3], this compound returned an IC50 of 38.1 µM.
